Assay results from ChEMBL document CHEMBL1136676, “The inhibitory effects of squalene-derived triterpenes on protein phosphatase PP2A” (Bioorg Med Chem Lett, 2003).

Columns and labels:
[1] = Inhibition of protein phosphatase (PP2A) at 100 uM
[2] = Inhibitory activity against protein phosphatase (PP2A) at 1 uM using fluorescein diphosphate
[3] = Inhibition of protein phosphatase (PP2A) at 250 uM
Homo sapiens = organism: Homo sapiens; assay: Inhibition of protein phosphatase (PP2A) at 10 uM using fluorescein diphosphate
[4] = target: T1, Serine/threonine-protein phosphatase 2A activator (Homo sapiens) (UniProt Q15257); assay: Inhibitory activity against protein phosphatase (PP2A) at a concentration of 100 uM using fluorescein diphosphate as substrate
T1 sequence (whole entry): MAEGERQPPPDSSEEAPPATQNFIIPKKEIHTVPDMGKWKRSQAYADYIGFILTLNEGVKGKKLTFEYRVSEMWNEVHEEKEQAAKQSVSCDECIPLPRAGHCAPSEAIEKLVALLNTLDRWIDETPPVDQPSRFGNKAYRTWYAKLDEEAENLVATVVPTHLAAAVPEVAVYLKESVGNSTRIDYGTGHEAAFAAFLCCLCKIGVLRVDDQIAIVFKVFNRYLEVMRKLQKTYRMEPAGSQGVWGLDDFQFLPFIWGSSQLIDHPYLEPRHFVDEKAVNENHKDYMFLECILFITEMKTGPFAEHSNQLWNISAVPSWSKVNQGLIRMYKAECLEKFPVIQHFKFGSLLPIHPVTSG

[5] = target: T1, Serine/threonine-protein phosphatase 2A activator (Homo sapiens); assay: (§1) Inhibitory activity against protein phosphatase (PP2A) at a concentration of 250 uM using fluorescein diphosphate as substrate
[6] = test system: Serine/threonine-protein phosphatase 2A catalytic subunit alpha; assay: Inhibitory activity against protein phosphatase (PP2A) at a concentration of 125 uM using fluorescein diphosphate as substrate
[7] = test system: Serine/threonine-protein phosphatase 2A catalytic subunit alpha; assay: Inhibitory activity against protein phosphatase (PP2A) at a concentration of 200 uM using fluorescein diphosphate as substrate
[8] = target: T1, Serine/threonine-protein phosphatase 2A activator (Homo sapiens); assay: Inhibitory activity against protein phosphatase (PP2A) at a concentration of 150 uM using fluorescein diphosphate as substrate
[9] = test system: Serine/threonine-protein phosphatase 2A catalytic subunit alpha; assay: Inhibitory activity against protein phosphatase (PP2A) at concentration of 1 uM using fluorescein diphosphate as substrate
[10] = target: T1, Serine/threonine-protein phosphatase 2A activator (Homo sapiens); assay: Inhibitory activity against protein phosphatase (PP2A) at concentration of 250 uM using fluorescein diphosphate as substrate
[11] = test system: Serine/threonine-protein phosphatase 2A catalytic subunit alpha; assay: Inhibitory activity against protein phosphatase (PP2A) at concentration of 10 uM using fluorescein diphosphate as substrate
[12] = test system: Serine/threonine-protein phosphatase 2A catalytic subunit alpha; assay: Inhibitory activity against protein phosphatase (PP2A) at concentration of 100 uM using fluorescein diphosphate as substrate
[13] = test system: Serine/threonine-protein phosphatase 2A catalytic subunit alpha; assay: Inhibitory activity against protein phosphatase (PP2A) at a concentration of 150 uM using fluorescein diphosphate as substrate
[14] = target: T2, Serine/threonine-protein phosphatase 2A 55 kDa regulatory subunit B alpha isoform (Homo sapiens) (UniProt P63151); assay: as §1
T2 sequence (whole entry): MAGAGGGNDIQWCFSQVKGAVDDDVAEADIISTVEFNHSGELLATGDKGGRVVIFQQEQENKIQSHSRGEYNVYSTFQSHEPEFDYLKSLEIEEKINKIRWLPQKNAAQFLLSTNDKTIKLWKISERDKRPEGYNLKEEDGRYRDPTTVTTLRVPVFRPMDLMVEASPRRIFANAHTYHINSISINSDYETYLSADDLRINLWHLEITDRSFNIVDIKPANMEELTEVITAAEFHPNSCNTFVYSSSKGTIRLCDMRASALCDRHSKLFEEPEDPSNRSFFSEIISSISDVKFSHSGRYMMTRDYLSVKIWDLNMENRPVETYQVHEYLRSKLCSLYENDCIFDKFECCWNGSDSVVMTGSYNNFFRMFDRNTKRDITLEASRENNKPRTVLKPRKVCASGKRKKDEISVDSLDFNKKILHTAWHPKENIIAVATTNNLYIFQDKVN

With C=C(CC[C@H](O)[C@@]1(C)CC[C@H](C(C)(C)O)O1)[C@H]1CC[C@H]2O[C@@H]([C@]3(C)CC[C@@H](C(C)(C)OC)O3)CC[C@]2(C)O1 the inhibition [1] was 65.1%, the inhibition [2] was 0% and the inhibition [3] was 57.2%. It also gave an inhibition (Homo sapiens) of 4.7%.
With C=C(CC[C@H](O)[C@@]1(C)CC[C@H](C(C)(C)O)O1)[C@H]1CC[C@H]2O[C@@H]([C@]3(C)CC[C@@H](C(C)(C)O)O3)CC[C@]2(C)O1 the inhibition [1] was 40.4%, the inhibition [2] was 0% and the inhibition [3] was 55.4%. It also gave an inhibition (Homo sapiens) of 0%.
C=C(CC[C@H]1O[C@@H](C(C)(C)O)CC[C@]1(C)O)[C@H]1CC[C@H]2O[C@@H]([C@]3(C)CC[C@@H](Br)C(C)(C)O3)CC[C@]2(C)O1 gave an inhibition [1] of 74.7%, an inhibition [2] of 0% and an inhibition [3] of 81.3%. The inhibition (Homo sapiens) was 6.2%.
Work on C=C(CC[C@H](O)[C@@]1(C)CC[C@H](C(C)(C)O)O1)[C@H]1CC[C@H]2O[C@@H]([C@]3(C)CC[C@@H](Br)C(C)(C)O3)CC[C@]2(C)O1 yielded an inhibition [2] of 8.2%, an inhibition (Homo sapiens) of 12.2% and an inhibition [4] of 25.2%. For the same molecule, the inhibition [5] was 37.7%.
Molecule C=C(CC[C@H](O)[C@@]1(C)CC[C@H](C(C)(C)O)O1)[C@H]1CC[C@H]2O[C@@H]([C@]3(C)CC[C@@H](Br)C(C)(C)O3)CC[C@@]2(C)O1 has an inhibition [6] of 24%, an inhibition [1] of 11.4% and an inhibition [7] of 47.8%. It also gave an inhibition [3] of 66.4% and an inhibition [8] of 26.1%.
C=C(CC[C@H](O)[C@@]1(C)CC[C@H](C(C)(C)O)O1)[C@H]1CC[C@H]2O[C@@H]([C@]3(C)CCC(=O)O3)CC[C@]2(C)O1 gave an inhibition [1] of 49.4%, an inhibition [2] of 33.7% and an inhibition [3] of 63.2%. The inhibition (Homo sapiens) was 40.1%.
Molecule C=C(CC[C@H](O)[C@@]1(C)CC[C@H](C(C)(C)O)O1)[C@H]1CC[C@H]2O[C@@H]([C@]3(C)CC[C@](OC)(C(C)C)O3)CC[C@]2(C)O1 has an inhibition [1] of 43.1%, an inhibition [2] of 0% and an inhibition [3] of 55.4%. It also gave an inhibition (Homo sapiens) of 2.7%.
Molecule CC(CCC[C@H]1O[C@@H]([C@]2(C)CC[C@@H](Br)C(C)(C)O2)CC[C@]1(C)O)CC[C@H](O)[C@@]1(C)CC[C@H](C(C)(C)O)O1 (stereo partly specified) has an inhibition [1] of 57.8%, an inhibition [9] of 43.6% and an inhibition [3] of 74.5%. For the same molecule, the inhibition (Homo sapiens) was 45.9%.
Work on C=C(CC[C@@H](O)[C@]1(C)CC[C@H](C(C)(C)O)O1)[C@H]1CC[C@H]2O[C@@H]([C@]3(C)CC[C@@H](Br)C(C)(C)O3)CC[C@]2(C)O1 yielded an inhibition [10] of 95.3%, an inhibition [11] of 23.7% and an inhibition [9] of 7.5%. It also gave an inhibition [12] of 66.8%.
C=C([C@@H](O)C[C@H](O)[C@@]1(C)CC[C@H](C(C)(C)O)O1)[C@H]1CC[C@H]2O[C@@H]([C@]3(C)CC[C@@H](Br)C(C)(C)O3)CC[C@]2(C)O1 gave an inhibition [1] of 100%, an inhibition [2] of 41.1% and an inhibition [3] of 100%. The inhibition (Homo sapiens) was 93.4%.
C/C(=C/C[C@@H](O)[C@]1(C)CC[C@H](C(C)(C)O)O1)[C@H]1CC[C@H]2O[C@@H]([C@]3(C)CC[C@@H](Br)C(C)(C)O3)CC[C@]2(C)O1 gave an inhibition [6] of 18.8%, an inhibition [1] of 6.5% and an inhibition [7] of 35.8%. The inhibition [13] was 32.7% and the inhibition [3] was 59.8%.
Work on C=C([C@H](O)C[C@H](O)[C@@]1(C)CC[C@H](C(C)(C)O)O1)[C@H]1CC[C@H]2O[C@@H]([C@]3(C)CC[C@@H](Br)C(C)(C)O3)CC[C@]2(C)O1 yielded an inhibition [1] of 65.1%, an inhibition [2] of 42.2% and an inhibition [3] of 79.3%. The inhibition (Homo sapiens) was 45.6%.
CC(C)(O)[C@H]1CC[C@](C)([C@@H](O)CC[C@](O)(CO)C2=CC[C@H]3O[C@@H]([C@]4(C)CC[C@@H](Br)C(C)(C)O4)CC[C@]3(C)O2)O1 gave an inhibition [1] of 99.1%, an inhibition [2] of 52.8% and an inhibition [3] of 100%. For the same molecule, the inhibition (Homo sapiens) was 93.2%.
For C/C(=C\C[C@H](O)[C@@]1(C)CC[C@H](C(C)(C)O)O1)[C@H]1CC[C@H]2O[C@@H]([C@]3(C)CC[C@@H](Br)C(C)(C)O3)CC[C@@]2(C)O1, the inhibition [1] was 99.5%, the inhibition [2] was 17.9% and the inhibition (Homo sapiens) was 41.9%. The inhibition [14] was 100%.
With C=C(CC[C@H](O)[C@@]1(C)CC[C@H](C(C)(C)O)O1)[C@H]1CC[C@H]2O[C@]3(C)CC[C@@H](Br)C(C)(C)O[C@H]3CC[C@]2(C)O1 the inhibition [11] was 20.4%, the inhibition [9] was 18.9% and the inhibition [3] was 66.5%. It also gave an inhibition [12] of 59.7%.
Work on CC(C)(O)[C@H]1CC[C@](C)([C@@H](O)CC[C@@](O)(CO)C2=CC[C@H]3O[C@@H]([C@]4(C)CC[C@@H](Br)C(C)(C)O4)CC[C@]3(C)O2)O1 yielded an inhibition [1] of 89.6%, an inhibition [2] of 15.2% and an inhibition [3] of 97.8%. The inhibition (Homo sapiens) was 31.8%.
